These results are taken from ChEMBL document CHEMBL1159168, “Unsaturated epoxy-C-glycosides. A new class of antitumor compounds with DNA cleavage properties” (Bioorg Med Chem Lett, 1994).

For one test, the system named is Raji. Nature of the test: In vitro cytotoxicity against Raji cells from human lymphoma. It is filed as functional, cell-based.
The subject of a further test is LFCl2A. Put plainly: In vitro cytotoxicity against LFCL2A cells from rat hepatocarcinoma. The class given is functional, cell-based.
Where [1] appears, read: Rattus norvegicus, LFCl2A, read-out: IC50.

Each structure is given as a SMILES string. Values joined by “and” are separate entries in the source; they are usually repeats but may differ in a detail not shown here. Equal entries are not always repeated.

By IC50 is commonly meant the concentration that inhibits the measured activity by half. In the case of `CC1=CCCCC1[C@@H]1C=C[C@@]2(CO2)[C@@H](CO)O1` (stereo not given in full), in the test with Raji (Homo sapiens, Raji), the IC50 is 255 µM and 60.3 µg/mL.
As for `C[C@@H]1O[C@@H](CC2=CCCCC2)C=C[C@]12CO2`, the IC50 in the test with LFCl2A (setting [1]) stood at 128 µM; in the test on LFCl2A (lfcl2a), 28.3 µg/mL.
Regarding `C[C@@H]1O[C@@H](CC2=CCCCC2)C=C[C@@]12CO2`, the values for the IC50 in the test on LFCl2A (setting [1]) and in the test with LFCl2A (lfcl2a) were 155 µM and 34.3 µg/mL, respectively.
In turn, `CC/C=C\C/C=C\C/C=C\C/C=C\C/C=C\C/C=C\CCC(=O)OC[C@H]1O[C@H](C2CCCC=C2C)C=C[C@@]12CO2` (stereo in doubt; 15) gave an IC50 in the test on Raji (raji) of 62 µM.
As for `CC/C=C\C/C=C\C/C=C\C/C=C\C/C=C\C/C=C\CCC(=O)OC[C@H]1O[C@H](C2CCCC=C2C)C=C[C@@]12CO2` (stereo in doubt; 16), the IC50 in the test with Raji (Homo sapiens, Raji) was 58 µM and 0.106 µg/mL.
In the test with Raji (raji), `CCCCC/C=C\C/C=C\C/C=C\C/C=C\CCCC(=O)OC[C@H]1O[C@H](C2CCCC=C2C)C=C[C@@]12CO2` (stereo in doubt; 17) came in with an IC50 of 66 µM.
On the same count and under the same terms, the value for `CCCCC/C=C\C/C=C\C/C=C\C/C=C\CCCC(=O)OC[C@H]1O[C@H](C2CCCC=C2C)C=C[C@@]12CO2` (stereo in doubt; 18) was 147 µM.
With `O=C(O)CCCc1ccc(N(CCCl)CCCl)cc1` [CHLORAMBUCIL], in the test on Raji (Homo sapiens, Raji), the IC50 was determined as 298 µM.
